For assay [1], the system named is Radical scavenging activity. As to the kind of experiment: Antioxidant activity assessed as as DPPH radical scavenging activity by spectrophotometry. Format: functional.
A further assay relates to Pseudomonas aeruginosa. Kind of assay: Antimicrobial activity against Pseudomonas aeruginosa ATCC 29953 after 24 hr by agar diffusion method. Format: functional. The conditions noted are these: for MIC: Pseudomonas aeruginosa, ATCC 29953, 24 h.
Another assay has as its system Mycolicibacterium phlei. As to the kind of experiment: Antimicrobial activity against Mycobacterium phlei after 24 hr by agar diffusion method. Format: functional.
For a further assay, the system named is Staphylococcus aureus. As to the kind of experiment: Antimicrobial activity against Staphylococcus aureus ATCC 29213 after 24 hr by agar diffusion method. Format: functional. The conditions noted are these: for MIC: Staphylococcus aureus, ATCC 29213, 24 h.
The test system of a further assay is Aspergillus niger. Kind of assay: Antimicrobial activity against Aspergillus niger after 24 hr by agar diffusion method. Format: functional, organism-based.
The test system of another assay is Mus musculus. Kind of assay: Analgesic activity in Mus musculus Swiss albino (mouse) assessed as inhibition of acetic acid-induced writhing at 20 mg/kg, po administered 30 min before acetic acid challenge measured for 20 min after acetic acid injection […]. Format: functional, organism-based. Details: dose 20 mg/kg.
A further assay deals with Enterococcus faecalis. As to the kind of experiment: Antimicrobial activity against Enterococcus faecalis ATCC 29212 after 24 hr by agar diffusion method. Format: functional. The conditions noted are these: for MIC: Enterococcus faecalis, ATCC 29212, 24 h.
In a further assay the test system is Rattus norvegicus. As to the kind of experiment: Anti-inflammatory activity in Rattus norvegicus Sprague-Dawley (rat) assessed as inhibition of carrageenan-induced paw edema at 20 mg/kg, po administered 1 hr before carrageenan challenge and measured hourly for 4-hr post drug administration by mercury plethysmometer. The assay is classed as functional, organism-based. Further details: dose 20 mg/kg.

The test system of another assay is Enterobacter cloacae. As to the kind of experiment: Antimicrobial activity against Enterobacter cloacae ATCC 3047 after 24 hr by agar diffusion method. The assay is classed as functional. Particulars: for MIC: Enterobacter cloacae, ATCC 3047, 24 h.
The next assay concerns Salmonella typhi. Kind of assay: Antimicrobial activity against Salmonella enterica subsp. enterica serovar Typhi after 24 hr by agar diffusion method. Particulars: for MIC: Salmonella enterica, 24 h. Format: functional.
The subject of the next assay is Klebsiella pneumoniae. As to the kind of experiment: Antimicrobial activity against Klebsiella pneumoniae ATCC 13883 after 24 hr by agar diffusion method. Format: functional. Particulars: for MIC: Klebsiella pneumoniae, ATCC 13883, 24 h.
The subject of another assay is Candida albicans. As to the kind of experiment: Antimicrobial activity against Candida albicans NRRLY-477 after 24 hr by agar diffusion method. Format: functional. The conditions noted are these: for MIC: Candida albicans, NRRLY-477, 24 h.
In a further assay the test system is Saccharomyces cerevisiae. Kind of assay: Antimicrobial activity against Saccharomyces cerevisiae after 24 hr by agar diffusion method. Particulars: for MIC: Saccharomyces cerevisiae, 24 h. Format: functional.
The subject of the next assay is Bacillus spizizenii. As to the kind of experiment: Antimicrobial activity against Bacillus subtilis subsp. spizizenii ATCC 6633 after 24 hr by agar diffusion method. Format: functional. Particulars: for MIC: Bacillus spizizenii, ATCC 6633, 24 h.
For the next assay, the system named is Escherichia coli. Particulars: ATCC 25922.

Values after ≈ are worked out from the molar mass of the structure shown. Active and inactive are the calls of the source. The calls are words filed in the database; no cut-off is given here.

Description for Escherichia coli: Antimicrobial activity against Escherichia coli ATCC 25922 after 24 hr by agar diffusion method

Consider `NC(=S)N/N=C\c1cn(-c2ccccc2)nc1-c1cccs1`, for which the half-inhibitory concentration (IC50) in assay [1] turned out to be 500 µg/mL (≈ 1530 µM). Further, the “inhibition zone (IZ)” value in the assay with Pseudomonas aeruginosa is given as 15 mm; with Mycolicibacterium phlei, 16 mm; in the assay on Staphylococcus aureus, 21 mm; in the assay on Enterococcus faecalis, 13 mm; with Enterobacter cloacae, 26 mm; in the assay on Salmonella typhi it was 28 mm. Further, the “inhibition zone (IZ)” value with Klebsiella pneumoniae was 28 mm; in the assay with Candida albicans, 16 mm; with Saccharomyces cerevisiae, 30 mm; in the assay on Bacillus spizizenii, 29 mm. For the same molecule, the minimal inhibitory concentration (MIC) in the assay with Staphylococcus aureus was found to be 83.3 µg/mL (≈ 254 µM); in the assay with Enterobacter cloacae, 20.8 µg/mL (≈ 63.5 µM); in the assay with Salmonella typhi, 20.8 µg/mL (≈ 63.5 µM); in the assay with Klebsiella pneumoniae, 20.8 µg/mL (≈ 63.5 µM); in the assay on Saccharomyces cerevisiae, 20.8 µg/mL (≈ 63.5 µM); in the assay with Bacillus spizizenii it was 20.8 µg/mL (≈ 63.5 µM). Also, in the assay with Aspergillus niger, the outcome was inactive. In addition, the inhibition entry with Mus musculus and with Rattus norvegicus was “Active” throughout. The IZ entry in the assay with Escherichia coli was “inactive”.
Regarding `CC(=O)N1CCN(c2ccc(OCC3COC(Cn4ccnc4)(c4ccc(Cl)cc4Cl)O3)cc2)CC1` (racemic) [KETOCONAZOLE], the “inhibition zone (IZ)” value in the assay on Pseudomonas aeruginosa, with Mycolicibacterium phlei, in the assay with Staphylococcus aureus, in the assay with Enterococcus faecalis, with Enterobacter cloacae and in the assay with Salmonella typhi was “inactive” throughout. For the same molecule, the “inhibition zone (IZ)” value with Klebsiella pneumoniae and with Bacillus spizizenii was “inactive” throughout. Further, the figures for the “inhibition zone (IZ)” value in the assay with Candida albicans and in the assay on Saccharomyces cerevisiae were 22 mm and 23 mm, respectively. Further, the MIC in the assay on Candida albicans was 10.4 µg/mL (≈ 19.6 µM); in the assay on Saccharomyces cerevisiae, 5.2 µg/mL (≈ 9.78 µM). For the same molecule, the IZ result in the assay on Escherichia coli is “inactive”.
With `N/C(=N/N=C\c1cn(-c2ccccc2)nc1-c1cccs1)SCC(=O)Nc1cccs1`, the IC50 in [1] was 1000 µg/mL (≈ 2140 µM). Further, the “inhibition zone (IZ)” value with Pseudomonas aeruginosa came out at 15 mm; in the assay on Staphylococcus aureus, 28 mm; in the assay on Enterococcus faecalis, 21 mm; in the assay on Enterobacter cloacae, 28 mm; with Klebsiella pneumoniae, 18 mm; in the assay with Candida albicans it was 15 mm. Also, in the assay with Bacillus spizizenii, the “inhibition zone (IZ)” value stood at 23 mm. For the same molecule, the “inhibition zone (IZ)” value in the assay with Mycolicibacterium phlei, in the assay with Salmonella typhi and in the assay with Saccharomyces cerevisiae was “inactive” in each case. Moreover, the MIC against Staphylococcus aureus was 20.8 µg/mL (≈ 44.6 µM); in the assay with Enterococcus faecalis it was 83.3 µg/mL (≈ 179 µM); against Enterobacter cloacae, 20.8 µg/mL (≈ 44.6 µM); in the assay on Klebsiella pneumoniae it was 167 µg/mL (≈ 357 µM); with Bacillus spizizenii it was 83.3 µg/mL (≈ 179 µM). In the assay with Aspergillus niger, the outcome was inactive. The inhibition result in the assay with Mus musculus and in the assay with Rattus norvegicus was “Active” each time. The IZ result in the assay on Escherichia coli was “inactive”.
Take `O=C1CS/C(=N\N=C/c2cn(-c3ccccc3)nc2-c2cccs2)N1`: in assay [1], the IC50 worked out at 500 µg/mL (≈ 1360 µM). For the same molecule, the “inhibition zone (IZ)” value in the assay with Pseudomonas aeruginosa, with Mycolicibacterium phlei, in the assay on Salmonella typhi, with Klebsiella pneumoniae and in the assay on Candida albicans was “inactive” throughout. Also, the “inhibition zone (IZ)” value in the assay on Staphylococcus aureus turned out to be 29 mm; in the assay with Enterococcus faecalis, 15 mm; with Enterobacter cloacae, 13 mm; with Saccharomyces cerevisiae, 29 mm; with Bacillus spizizenii, 19 mm. Further, the MIC in the assay on Staphylococcus aureus turned out to be 20.8 µg/mL (≈ 56.6 µM); against Saccharomyces cerevisiae it was 41.6 µg/mL (≈ 113 µM); with Bacillus spizizenii it was 167 µg/mL (≈ 453 µM). For the same molecule, the outcome with Aspergillus niger was inactive. Besides, the inhibition result in the assay on Mus musculus and in the assay on Rattus norvegicus was “Active” throughout. For the same molecule, the IZ entry in the assay on Escherichia coli is “inactive”.
Consider `Cc1nc(N/N=C\c2cn(-c3ccccc3)nc2-c2cccs2)sc1/N=N/c1ccc(F)cc1`, for which the IC50 in assay [1] worked out at 25 µg/mL (≈ 51.3 µM). The “inhibition zone (IZ)” value in the assay with Pseudomonas aeruginosa is given as 19 mm; with Staphylococcus aureus it was 21 mm; in the assay on Enterococcus faecalis it was 16 mm; with Enterobacter cloacae, 26 mm; with Klebsiella pneumoniae it was 18 mm; in the assay with Candida albicans, 17 mm. The “inhibition zone (IZ)” value was found to be 31 mm in the assay on Saccharomyces cerevisiae and 22 mm in the assay with Bacillus spizizenii. Also, the MIC in the assay on Pseudomonas aeruginosa turned out to be 333 µg/mL (≈ 684 µM); in the assay with Staphylococcus aureus, 41.8 µg/mL (≈ 85.7 µM); in the assay on Enterobacter cloacae, 41.6 µg/mL (≈ 85.3 µM); with Klebsiella pneumoniae, 167 µg/mL (≈ 342 µM); against Candida albicans it was 167 µg/mL (≈ 342 µM); in the assay with Saccharomyces cerevisiae it was 20.8 µg/mL (≈ 42.7 µM). In the assay with Bacillus spizizenii, this molecule registered an MIC of 167 µg/mL (≈ 342 µM). The “inhibition zone (IZ)” value with Mycolicibacterium phlei and in the assay on Salmonella typhi was “inactive” in each case. In addition, the outcome in the assay on Aspergillus niger was inactive. Further, the inhibition result with Mus musculus and in the assay on Rattus norvegicus was “Active” in each case. The IZ entry in the assay with Escherichia coli was “inactive”.
As for `O=C(O)c1cn(C2CC2)c2cc(N3CCNCC3)c(F)cc2c1=O` [CIPROFLOXACIN], the “inhibition zone (IZ)” value in the assay with Pseudomonas aeruginosa amounted to 24 mm; in the assay on Mycolicibacterium phlei, 22 mm; in the assay on Enterococcus faecalis, 23 mm; with Salmonella typhi it was 21 mm; in the assay on Bacillus spizizenii, 22 mm. Besides, the values for the MIC against Salmonella typhi and against Bacillus spizizenii were 41.6 µg/mL (≈ 126 µM) and 10.4 µg/mL (≈ 31.4 µM), respectively. The “inhibition zone (IZ)” value with Candida albicans and in the assay on Saccharomyces cerevisiae was “inactive” in each case.
For the molecule `Clc1ccc(C2=NNC(c3cn(-c4ccccc4)nc3-c3cccs3)C2)cc1` (configuration not stated), the IC50 in assay [1] amounted to 750 µg/mL (≈ 1850 µM). In addition, the “inhibition zone (IZ)” value with Pseudomonas aeruginosa is given as 26 mm; with Staphylococcus aureus, 20 mm; in the assay on Enterococcus faecalis it was 21 mm; in the assay with Enterobacter cloacae, 21 mm; with Candida albicans, 17 mm; in the assay with Saccharomyces cerevisiae it was 31 mm. In the assay with Bacillus spizizenii, the “inhibition zone (IZ)” value amounted to 17 mm. In addition, the MIC is 167 µg/mL (≈ 411 µM) against Pseudomonas aeruginosa; 333 µg/mL (≈ 823 µM) against Staphylococcus aureus; 41.6 µg/mL (≈ 103 µM) against Enterococcus faecalis; 83.3 µg/mL (≈ 206 µM) in the assay with Enterobacter cloacae; 167 µg/mL (≈ 411 µM) with Candida albicans; 20.8 µg/mL (≈ 51.4 µM) in the assay on Saccharomyces cerevisiae. In addition, the MIC in the assay with Bacillus spizizenii was 333 µg/mL (≈ 823 µM). Also, the “inhibition zone (IZ)” value in the assay with Mycolicibacterium phlei, in the assay on Salmonella typhi and in the assay on Klebsiella pneumoniae was “inactive” each time. The result with Aspergillus niger was inactive. In addition, the inhibition entry in the assay on Mus musculus and in the assay with Rattus norvegicus was “Active” each time. In addition, the IZ entry in the assay with Escherichia coli is “inactive”.
As to `C(=N/Nc1nc(-c2cc3ccccc3o2)cs1)/c1cn(-c2ccccc2)nc1-c1cccs1`, the IC50 in [1] came to 25 µg/mL (≈ 53.5 µM). Further, the “inhibition zone (IZ)” value was found to be 14 mm with Pseudomonas aeruginosa; 21 mm with Staphylococcus aureus; 15 mm in the assay on Enterococcus faecalis; 15 mm with Enterobacter cloacae; 15 mm in the assay on Klebsiella pneumoniae; 23 mm with Bacillus spizizenii. Besides, the “inhibition zone (IZ)” value in the assay with Mycolicibacterium phlei, in the assay with Salmonella typhi, in the assay on Candida albicans and with Saccharomyces cerevisiae was “inactive” each time. Besides, the MIC in the assay on Staphylococcus aureus and against Bacillus spizizenii was 167 µg/mL (≈ 356 µM) in each case. In addition, the result in the assay with Aspergillus niger was inactive. Besides, the inhibition entry in the assay with Mus musculus and with Rattus norvegicus was “Active” in each case. Besides, in the assay on Escherichia coli, the IZ entry was “inactive”.
`Cc1ccc(NC(=S)N2N=C(c3ccc(Cl)cc3)CC2c2cn(-c3ccccc3)nc2-c2cccs2)cc1` (configuration not stated): in assay [1], the IC50 worked out at 500 µg/mL (≈ 902 µM). In addition, the “inhibition zone (IZ)” value in the assay with Pseudomonas aeruginosa, with Salmonella typhi and in the assay on Saccharomyces cerevisiae was “inactive” in each case. Further, the “inhibition zone (IZ)” value in the assay on Mycolicibacterium phlei was determined as 13 mm; in the assay on Staphylococcus aureus, 15 mm; with Enterococcus faecalis, 21 mm; in the assay with Enterobacter cloacae, 16 mm; with Klebsiella pneumoniae it was 21 mm; with Candida albicans, 15 mm. Further, the “inhibition zone (IZ)” value in the assay with Bacillus spizizenii was 21 mm. Also, the result in the assay with Aspergillus niger was inactive. Further, the inhibition entry with Mus musculus and with Rattus norvegicus was “Active” each time. The MIC against Enterococcus faecalis is 167 µg/mL (≈ 301 µM); in the assay with Klebsiella pneumoniae, 333 µg/mL (≈ 601 µM); against Bacillus spizizenii, 167 µg/mL (≈ 301 µM). For the same molecule, the IZ result in the assay with Escherichia coli is “inactive”.
As to `O=C(O)Cc1ccccc1Nc1c(Cl)cccc1Cl`, the inhibition entry in the assay with Mus musculus and in the assay with Rattus norvegicus was “Active” throughout.

These data come from ChEMBL document CHEMBL3046217, “Synthesis, antimicrobial, antioxidant, anti-inflammatory, and analgesic activities of some new 3-(2-thienyl)pyrazole-based heterocycles” (Med Chem Res, 2012).
